Data: publication PMC11166458, “Caskin2 is a novel talin- and Abi1-binding protein that promotes cell motility” (Journal of Cell Science, 2024)
No end group written: not given here.

Assays:
[1] = test system: MCF7 cells; assay: Caskin2–talin colocalization in MCF7 cells (Pearson's correlation); assay type: cell-based, Human; conditions: blebbistatin 10 µM, 20 µM for 45 min (Fig. S3B)
Experimental: PA-JEB/β4 keratinocytes were seeded on glass coverslips and cultured for 24 h in complete KGM, and then continued to be cultured for a further 16 h in DMEM with 10% FCS. GE11^tetONβ1 and MCF7 cells were seeded on glass coverslips and cultured for 24 h in DMEM with 10% FCS. Cells were fixed in 2% paraformaldehyde and permeabilized with 0.2% Triton X-100 for 5 min, blocked with PBS containing 2% bovine serum albumin (BSA; Sigma-Aldrich) for 45 min and subsequently incubated with primary and secondary antibodies for 1 h. In between antibody steps, the coverslips were washed three times with PBS. Actin fibers were visualized by staining with Phalloidin–Alexa Fluor 647 (Cell Signaling Technology). Nuclei were stained with DAPI. Samples were mounted on glass slides in Mowiol after three washing steps with PBS. Images were acquired with a Leica TCS SP5 confocal microscope with a 63× (NA 1.4) oil objective. Software for image acquisition is Leica LAS AF 3.0.2 ([Wang et al., 2020b]).
Imaging analysis was performed using FIJI software ([Schindelin et al., 2012]). The levels of colocalization between Caskin2 and various other proteins, including integrin β4, FA proteins and CMSC components, was performed using Pearson's co-efficient analysis in the JACoP module of ImageJ ([Carisey et al., 2013]; [Wang et al., 2020b]).

[2] = test system: talin-R7R8 (residues 1358–1653), R8 domain; assay: X-ray structure of talin-R7R8 in complex with Caskin2-LD peptide, interface analysis; assay type: binding, murine; conditions: electron density map; 1:2 molar ratio of protein to peptide
Experimental: A codon-optimized synthetic gene encoding murine talin-R7/R8 domains (residues 1358–1653) was cloned into the pETNKI-6xhis-3C-LIC vector ([Luna-Vargas et al., 2011]). The 6×his–3C–talin-R7/R8 protein was expressed in Bl21(DE3) cells, for 18 h at 20°C upon induction with 0.4 mM IPTG. Cells were harvested by centrifugation (4000 g for 15 min) and stored at −20°C. After thawing, cells were resuspended in lysis buffer [25 mM Tris-HCl pH 8.0, 10 mM imidazole, 200 mM NaCl, 1 mM TCEP and 5 μg/ml DNase (Roche)] and lysed by sonication. The soluble lysate fractions were collected after centrifugation (55,000 g at 4°C for 30 min) and applied to a nickel Sepharose column. Beads were washed with wash buffer (lysis buffer without DNase) and protein was eluted in the same buffer supplemented with 250 mM imidazole. The 6×His tag was cleaved off by his-3C protease during dialysis against 25 mM Tris-HCl pH 8.0, 100 mM NaCl, 1 mM TCEP for 16 h at 4°C. The protein solution was diluted with an equal volume of 25 mM Tris-HCl pH 8.0, 1 mM TCEP before his-3C protease and uncleaved 6×his–talin-R7/R8 were removed by nickel Sepharose. The protein was further purified by anion exchange chromatography (Resource Q column, Cytiva) followed by size exclusion chromatography (S75 Superdex 16/60, Cytiva) in 25 mM Tris-HCl pH 8.0, 100 mM NaCl, 1 mM TCEP. Talin-R7/R8 eluted in a single peak. […]

Compound | overall Caskin2–talin colocalization [1] | binding to talin-R8 in crystal structure [2]
Cc1ccc2c(c1)C(=O)C1(O)CCN(c3ccccc3)C1=N2 (centres unmarked) [blebbistatin] | increased overall Caskin2–talin colocalization | –
Caskin2-LD peptide: C-terminal LD motif peptide of Caskin2 (residues 1187–1202) (STMFDALADQLDAMLD; also: Atto488 label) | – | clear binding of the Caskin2-LD peptide to the R8 motif
